# Measurements as given in patent US20040034104A1, “2,2-Diphenylbutanamide derivatives and medicines containing the same” (priority 2000, published 2004).
# System: not given
# Test: not given
# Settings: not given
row,melting point [°C],Structure (SMILES)
1,147,CCOC(=O)COc1ccccc1C1=CCN(CCC(C(=O)N(C)C)(c2ccccc2)c2ccccc2)CC1
2,239,O=C(O)COc1ccccc1C1CCN(CCC(C(=O)N2CCCC2)(c2ccccc2)c2ccccc2)CC1
3,156 to 158,CN(C)C(=O)C(CCN1CCC(c2ccccc2OC(C)(C)C(=O)O)CC1)(c1ccccc1)c1ccccc1

# The next lines start with the compound.
row,Structure (SMILES),melting point [°C]
1,CN(C)C(=O)C(CCN1CCC(c2ccccc2OCC(=O)O)CC1)(c1ccccc1)c1ccccc1,202
2,CN(C)C(=O)C(CCN1CC=C(c2ccccc2OCC(=O)O)CC1)(c1ccccc1)c1ccccc1,135

# System: opioid receptor (μ-opioid)
# Test: Opioid receptor agonist activity in guinea pig ileum longitudinal muscle specimens
# Settings: agonist activity relative to DAMGO (=1.0); ileum longitudinal muscle specimens with Auerbach's plexus; method of Oka et al.
# Method: Hartley male guinea pigs (body weight: about 500 g) wer employed. The ileum (15-30 cm) was removed from the ileocecum of each guinea pig, to thereby prepare longitudinal muscle specimens having Auerbach's plexus. Opioid receptor activity of the test drugs was measured through a method proposed by Oka et al. (Eur. J. Pharmacol., 77; 137-141, 1982). Agonist activity is represented by the efficacy relative to the activity of DAMGO ([D-Ala^2, N-MePhe^4, Gly^5-ol]-enkephalin), which is a selective μ-opioid agonist.
row,Structure (SMILES),Relative potency
1,"CN(C)C(=O)C(CCN1CCN(c2ccccc2O)CC1)(c1ccccc1)c1ccccc1 [Compound No. 36, 4-[4-(2-Hydroxyphenyl)piperazin-1-yl]-N,N-dimethyl-2,2-diphenylbutanamide]",10
2,"CN(C)C(=O)C(CCN1CCN(c2ccccc2OCCO)CC1)(c1ccccc1)c1ccccc1 [Compound No. 43, 4-[4-[2-(2-hydroxyethoxy)phenyl]piperazin-1-yl]-N,N-dimethyl-2,2-diphenylbutanamide]",20
3,"CN(C)C(=O)C(CCN1CCC(c2ccccc2OCCO)CC1)(c1ccccc1)c1ccccc1 [Compound No. 69, 4-[4-[2-(2-hydroxyethoxy)phenyl]piperidin-1-yl]-N,N-dimethyl-2,2-diphenylbutanamide]",10
4,"C[C@@H](NC(=O)[C@@H](N)Cc1ccc(O)cc1)C(=O)NCC(=O)N(C)[C@@H](Cc1ccccc1)C(=O)NCCO [DAMGO, [D-Ala^2, N-MePhe^4, Gly^5-ol]-enkephalin, reference compound]",1.0
5,CN(C)C(=O)C(CCN1CCN(c2ccccc2OCC(=O)O)CC1)(c1ccccc1)c1ccccc1 [compound 45],20
